Measured values published in patent EP0237348A1, “Cell protection” (THE WELLCOME FOUNDATION LIMITED, priority 1986, dated 1987).

System: Myocaridal infarct size
Assay: Myocardial infarct size after 90 minute LAD occlusion and reperfusion in anaesthetized dogs (ex vivo TTC / Evans blue dual perfusion)
Set-up: species or system Male beagle dogs
Conditions: for % Area at Risk * Infarcted: 10 mg/kg intravenously over five minutes beginning fifteen minutes prior to reperfusion, 90 minute LAD occlusion, infarct quantified 24 hours after occlusion, means ± standard error
Experimental: Male beagle dogs (10-12 kg) were anaesthetized with pentobarbital sodium, intubated, and ventilated with room air via a Harvard respirator. Catheters for infusion and arterial blood pressure measurements were implanted in the left jugular vein and left carotial artery. A thoracotomy was performed at the fourth intercostal space, the heart suspended in a percardial cradle and the left anterior descending artery (LAD) isolated just below the first major diagonal branch. An electromagnetic flow probe was placed on LAD. A 90 minute occlusion of the LAD was produced by placing a snare of 1/0 silk sutre distel to the flow probe. Treatment was initiated intravenously fifteen minutes prior to release of this snare occlusion and continued for 45 minutes after release. The thoracotomy was closed, and the animals were allowed to recover from the surgical procedures. The animals were reanaesthetized 24 hours after the occlusion, and the flow in the LAD reassessed. Then the heart was removed for post mortem quantification of infarct size.
Three groups of dogs were evaluated. Group 1 consisted of saline controls. Group 2 were administered allopurinol and group 3 were administered oxypurinol. Allopurinol and oxypurinol were dissolved, separately, in O.I.N. sodium hydroxide and back-titrated to pH 9.3. The formulations were adminstered intravenously over five minutes beginning fifteen minutes prior to reperfusion.
Myocaridal infarct size was quantified by an ex vivo dual reperfusion technique. Cannulas were inserted into the LAD immediately distel to the site of occlusion and into the aorta above the coronary ostia. The LAD coronary bed that was perfused with 1.5% triphenyl tetrazolium hydrochloride (TTC) in 0.02 M potassium phosphate buffer, pH 7.4. The aorta was perfused in a retrograde manner with 0.5% Evans blue dye. Both regions ere perfused with their respective stains at a constant pressure of 100 mm mercury for five minutes. The heart was cut into 8 mm slices perpendicular to the apex-base axis. The area of the left ventrical at risk of infarction due to aatomical dependence on the LAD for blood flow is identified by the lack of Evans blue in this region. The region of infarcted myocardium within the area was demarcated by the lack of staining of the tissue when perfused with TTC due to a loss of dehydrogenase enzymes.
The transverse ventricular sections were traced carefully on to clear acrylic overlays to provide a permanent record of infarcted methology and to allow planimetric confirmation of infarct size. Ventricular sections then were trimmed of right ventricular muscle, valvular, and fatty tissue. Total left ventricular, area at risk, and infarct was separated by careful dissection and weighted. Infarct size was expressed as a percentage of the anatomic area at risk. […]

Row | SMILES | % Area at Risk * Infarcted | Reduction of area at risk (infarcted) compared with saline and allopurinol (10 mg/kg i.v. fifteen minutes prior to reperfusion, significance criterion p less than 0.05 (ANOVA, Bonferroni)) | Reducing cellular injury when administered after ischemia (and before reperfusion) (administered after ischemia and before reperfusion, summary statement)
1 | Oc1ncnc2[nH]ncc12 [Allopurinol] | 43.1 ± 6.1% |  | 
2 | O=c1[nH]c(=O)c2c[nH]nc2[nH]1 [Oxypurinol, 4,6-dihydroxypyrazola(3,4-d)pyrimidine] | 19.0 ± 1.7% | significantly reduced | effective
